Laboratory results reported in patent publication US10806794B2, “Protease inhibitors having enhanced features” (priority 2008, dated 2020).
Where “and” joins values, the source holds several entries; their conditions need not be identical. Equal entries are not always repeated. Where two headings read alike, the source gives them in different places.

Experiments:
HIV-1 virions = assay: Infectivity of HIV-1 virions from treated cells on naive CEM-SS cells; assay type: cell-based
Experimental: In concert with p24 analysis, cell supernatants collected from cells exposed to test compounds at 8, 16, or 24 hours post-infection were used to infect naïve CEM-SS cells. Cell viability was measured six days post-infection as a measure of virus infectivity (Table 5).

HIV-1RF [1] = assay: p24 levels after single high MOI HIV-1RF infection of CEM-SS cells, time of addition; assay type: cell-based; details: 1 μM
Experimental: The cytoprotective effect against HIV of the PEG-protease inhibitor conjugates was evaluated during a single round of high multiplicity of infection (“MOI”) HIV-1 infection in CEM-SS cells. CEM-SS cells were incubated for one hour with a single high MOI dose of HIV-1RF. Cells were washed to remove free virus, then test compounds were added to cells at 0, 2, 4, 6, 8, 16, or 24 hours after HIV-1 infection. To monitor viral replication, cell supernatants were analyzed at 30 hours post-infection for levels of the HIV capsid protein p24 (FIG. 1). […] Nevirapine inhibited viral replication at 1 μM when added to cells up to four hours post-infection, and at 10 μM when added up to eight hours post-infection.

HIV-1RF [2] = assay: Pre-exposure assay: CEM-SS cells treated before HIV-1RF infection, cell viability; assay type: cell-based; details: for EC50: Human immunodeficiency virus 1, CEM-SS
Experimental: (§1) The effects of pre- and post-infection PI treatment on CEM-SS toxicity were assessed. […] Cell toxicity was monitored six days after infection using XTT reagent. In the post-exposure assay, test compounds were added to cells 0, 24, 48, or 72 h after HIV-1 infection, and cell viability was measured six days post-infection.

CEM-SS cells [3] = assay: Pre-exposure assay: toxicity in CEM-SS cells
Experimental: as §1

HIV-1RF [4] = assay: Post-exposure assay: compounds added after HIV-1 infection of CEM-SS cells, cell viability; assay type: cell-based; details: Human immunodeficiency virus 1, CEM-SS
Experimental: as §1

CEM-SS cells [5] = assay: Post-exposure assay: toxicity in CEM-SS cells
Experimental: as §1

[6] = target: recombinant HIV-1 protease (Human immunodeficiency virus type 1 group M subtype B (isolate HXB2) (HIV-1), UniProt P04585); assay: Enzyme inhibition of purified HIV-1 protease (SensoLyte 520 HIV-Protease Assay Kit); assay type: biochemical; details: read-out: IC50 ± SD
Experimental: Protease inhibitors (PI) are used to treat HIV infection by preventing viral assembly and maturation through the inhibition of HIV-1 protease activity. Biochemical assays were performed to evaluate the potential of PEG-PI conjugates to inhibit HIV-1 protease activity, relative to their respective PI parent molecules. Activity assays were performed at using the SensoLyte 520 HIV-Protease Assay Kit (Anaspec Inc., San Jose, Calif.) and recombinant HIV-1 protease. Protease activity was monitored by the formation of a fluorescent reporter product generated during HIV-1 protease-mediated digestion of a quenched, fluorimetric substrate containing the p17/p24 Pr^gag cleavage site.

[7] = Plasma protein binding by equilibrium dialysis, human plasma; assay type: in vitro ADME; details: human plasma, 5 μM, fraction unbound; read-out: Plasma Protein Binding Fu ± SD
Summary of the method: (§2)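 5 μM cpd in plasma vs buffer, 0.5% DMSO; equilibrium dialysis 2 h, 37 °C; both chambers by LC-MS/MS.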

CEM-SS cells [8] = details: absence of viral infection
Experimental: To evaluate whether conjugated protease inhibitors retain the ability to protect against HIV-1 infection, CEM-SS cells infected with the RF strain of HIV-1 were treated with test compounds for six days, and then cell viability was monitored using the tetrazolium dye XTT. […] A value for Therapeutic Index (TI) was calculated as TC50/EC50.

[9] = Metabolic stability in cryopreserved human hepatocytes; details: human, hepatocytes
Experimental: (§3) Metabolism of PI conjugates was investigated by monitoring the levels of unmetabolized parent compound following incubation with cryopreserved human or monkey hepatocytes. The use of whole hepatocytes rather than microsomes requires that the drugs cross the cell membrane to interact with intracellularly-localized metabolic enzymes, and thus provides the most relevant in vitro system for understanding overall metabolic stability of these compounds.
(§4) Test compounds (0.1 μM or 3 μM, as indicated) are incubated with cryopreserved human hepatocytes at a cell density of 0.5×10^6 viable cells/mL. […] Duplicate samples (50 μL) are removed from the incubation mixture at various timepoints up to four hours (for 0.1 μM test compound concentration), or one or two hours (for 3 μM test compound concentration), and the reaction is quenched by the addition of methanol containing internal standard (100 μL). The samples are centrifuged (2500 rpm at 4° C. for 20 min), and the supernatants at each time point pooled for cassette analysis by LC-MS/MS.

[10] = Microsomal protein binding by equilibrium dialysis; assay type: in vitro ADME; details: human liver microsomes, read-out: Microsomal Protein Binding Fu ± SD
Summary of the method: (§5)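 Compound at 3 μM final in buffer with or without human liver microsomes, dialysed to equilibrium at 37 °C. Both sides quantified by LC-MS/MS to derive fraction unbound (Fu).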

CYP3A4 [11] = target: T1, CYP3A4 (Homo sapiens (Human), UniProt P08684); assay: Metabolic stability in CYP3A4-expressing Bactosomes; assay type: in vitro ADME; details: 5 μM
T1 sequence (P08684 whole entry, canonical isoform): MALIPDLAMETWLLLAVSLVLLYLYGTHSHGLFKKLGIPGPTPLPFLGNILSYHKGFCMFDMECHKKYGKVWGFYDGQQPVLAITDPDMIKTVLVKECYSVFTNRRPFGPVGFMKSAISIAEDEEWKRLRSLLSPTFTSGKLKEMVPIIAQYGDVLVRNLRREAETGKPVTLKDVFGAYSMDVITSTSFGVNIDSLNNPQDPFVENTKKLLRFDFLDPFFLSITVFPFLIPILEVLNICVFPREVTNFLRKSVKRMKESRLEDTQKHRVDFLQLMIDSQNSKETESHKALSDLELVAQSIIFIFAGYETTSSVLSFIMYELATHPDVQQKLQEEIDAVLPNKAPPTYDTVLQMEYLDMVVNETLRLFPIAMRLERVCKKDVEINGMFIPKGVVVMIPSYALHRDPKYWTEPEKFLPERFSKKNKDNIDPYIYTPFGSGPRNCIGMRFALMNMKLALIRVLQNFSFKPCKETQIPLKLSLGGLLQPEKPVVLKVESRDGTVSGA
Experimental: (§6) Compounds were evaluated for their propensity to act as substrates of individual human cytochrome P450 enzymes using a bacterial membrane preparation co-expressing human NADPH-cytochrome P450 reductase with either human CYP3A4 or CYP2D6 (Bactosomes™ Cypex, Ltd., Dundee, UK). In vitro metabolism studies using Bactosomes™ expressing individual human CYP isoforms monitor the extent to which a test compound is metabolized by a single CYP450 enzyme and allow identification of the CYP isoforms that may be responsible for the metabolism of a test compound. Timecourse analyses of test molecules (5 μM) with CYP2D6- or CYP3A4-expressing Bactosomes™ (100 pmol/mL) are performed in buffer (0.1 M phosphate, pH 7.4) in a final reaction volume of 25 μL. […] Reactions are terminated by the addition of methanol (50 μL) containing internal standard at 0, 5, 15, 30, and 45 minutes.

human plasma proteins = assay: Plasma protein binding by equilibrium dialysis, human plasma; assay type: in vitro ADME; details: human plasma, 5 μM, fraction unbound
Summary of the method: as §2

PBMCs = assay: Toxicity in PBMCs cultured without virus (XTT)
Experimental: (§7) Fresh human peripheral blood mononuclear cells (PBMCs) obtained from a commercial source were purified following centrifugation using a Ficoll-Hypaque density gradient. Viable cells were induced to proliferate in the presence of PHA-P and recombinant human IL-2 for 72 hours. […] Cell supernatant containing HIV-1 viral was incubated for 90 minutes at 37° C. with a reaction mixture containing EGTA, Triton X-100, Tris (pH 7.4), DTT, MgCl2, poly rA, oligo dT, and tritiated thymidine triphosphate (TTP). Incorporation of TTP into DNA was monitored by spotting the reaction mixture onto a DEAE filter mat, followed by washes with 5% phosphate buffer, distilled water, and 70% ethanol, and subsequent drying of the mat. […] TI was calculated as TC50/EC50.

CYP3A4 [12] = target: T1, CYP3A4; assay: CYP450 inhibition in human liver microsomes: CYP3A4;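 note: incubation at 37 °C started by adding 1 mM NADPH, with formation of the probe metabolite measured via LC-MS/MS or fluorescent detection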
HIV-1 HT/92/599 = assay: HIV-1 reverse transcriptase activity after infection of fresh human PBMCs; assay type: cell-based; details: read-out: PBMC/HIV-1HT/92/599 EC50 ± SD; seven days, reverse transcriptase activity
Experimental: as §7, with “mat. Radioactivity was measured using a Wallac 1450 Microbeta Trilux liquid scintillation counter using Opti-Fluor O. Test compound-associated toxicity was measured in PBMCs cultured for seven days in the absence of virus using XTT reagent.” for “mat.”

[13] = Metabolic stability in human liver microsomes; details: human liver microsomes, 3 μM
Experimental: The human liver microsome-mediated biotransformation of PEG-PI compounds was determined by monitoring the loss of the substrate as a function of time. […] Test compounds (3 μM final concentration) were preincubated with pooled (male and female) human liver microsomes (0.5 mg/mL final protein concentration) in buffer (0.1M phosphate buffer, pH 7.4) at 37° C. Reactions were initiated by the addition of NADPH (1 mM final concentration), and allowed to continue for 0, 5, 15, 30, and 45 minutes. […] Sample supernatants are analyzed by liquid chromatography-tandem mass spectrometry.

human hepatocytes = assay: Metabolic stability in cryopreserved human hepatocytes; details: human hepatocytes, 3 uM, incubated up to one hour
Experimental: as §3, §4

[14] = tested on: human liver microsomal proteins; assay: Microsomal protein binding by equilibrium dialysis; assay type: in vitro ADME; details: human liver microsomes, 3 μM, fraction unbound
Summary of the method: as §5

CYP2D6 = CYP2D6 (Homo sapiens (Human), UniProt P10635); assay: Metabolic stability in CYP2D6-expressing Bactosomes; assay type: in vitro ADME; details: 5 μM
Chain of CYP2D6 (P10635 whole entry): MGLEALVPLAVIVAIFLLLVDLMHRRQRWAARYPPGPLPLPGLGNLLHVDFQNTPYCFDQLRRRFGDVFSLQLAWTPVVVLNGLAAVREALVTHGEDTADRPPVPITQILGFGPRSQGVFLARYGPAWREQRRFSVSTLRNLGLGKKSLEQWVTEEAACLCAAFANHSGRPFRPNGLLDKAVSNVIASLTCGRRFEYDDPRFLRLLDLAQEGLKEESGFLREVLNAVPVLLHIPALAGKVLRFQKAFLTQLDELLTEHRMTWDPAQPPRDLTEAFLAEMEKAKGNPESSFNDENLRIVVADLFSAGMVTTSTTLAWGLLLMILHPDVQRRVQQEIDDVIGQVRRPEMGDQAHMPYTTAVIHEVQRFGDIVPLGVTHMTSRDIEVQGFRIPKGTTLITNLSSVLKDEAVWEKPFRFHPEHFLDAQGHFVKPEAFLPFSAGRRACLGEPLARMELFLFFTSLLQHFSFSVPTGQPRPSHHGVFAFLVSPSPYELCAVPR
Experimental: as §6

Q: With `Cc1ccnc2c1NC(=O)c1cccnc1N2C1CC1` [Nevirapine] as the molecule, how does the “Percent Infectivity of HIV-1 Virions in comparison to virus-alone control” value (from here on “Percent Infectivity of HIV-1 Virions”) (HIV-1 virions; 0.1 μM, added 8 h post-infection) read?
A: 100.0%

Q: And the “Percent Infectivity of HIV-1 Virions” value (HIV-1 virions; 0.1 μM, added 16 h post-infection)?
A: 117.0%

Q: And the “Percent Infectivity of HIV-1 Virions” value (HIV-1 virions; 0.1 μM, added 24 h post-infection)?
A: 128.0%

Q: And the “Percent Infectivity of HIV-1 Virions” value (HIV-1 virions; 1 μM, added 8 h post-infection)?
A: 100.0%

Q: What about the “Percent Infectivity of HIV-1 Virions” value (HIV-1 virions; 1 μM, added 16 h post-infection) of the same molecule?
A: 100.0%

Q: What about the “Percent Infectivity of HIV-1 Virions” value (HIV-1 virions; 10 μM, added 8 h post-infection) of the same molecule?
A: 10.0%

Q: And the “Percent Infectivity of HIV-1 Virions” value (HIV-1 virions; 10 μM, added 24 h post-infection)?
A: 177.8%

Q: And the “time of addition up to which antiviral activity (reduced p24) was seen” value (HIV-1RF [1])?
A: up to four

Q: What about the EC50 (HIV-1RF [2]; 2 h) of the same molecule?
A: 470 nM

Q: And the EC50 (HIV-1RF [2]; 8 h)?
A: 200 nM

Q: And the EC50 (HIV-1RF [2]; 24 h)?
A: 640 nM

Q: What about the “EC50 values after pre-treatment of cells” value (HIV-1RF [2]; in words) of the same molecule?
A: sub-micromolar

Q: And the TC50 (CEM-SS cells [3]; exposure 2 h pre-infection)?
A: >1000 nM

Q: What about the TC50 (CEM-SS cells [3]; exposure 8 h pre-infection) of the same molecule?
A: >1000 nM

Q: And the TC50 (CEM-SS cells [3]; exposure 24 h pre-infection)?
A: >1000 nM

Q: And the EC50 (HIV-1RF [4]; 0 h)?
A: 5 nM

Q: And the EC50 (HIV-1RF [4]; 24 h)?
A: 10 nM

Q: And the EC50 (HIV-1RF [4]; 48 h)?
A: 50 nM

Q: What about the EC50 (HIV-1RF [4]; 72 h) of the same molecule?
A: 200 nM

Q: And the TC50 (CEM-SS cells [5]; drug addition 0 h post-infection)?
A: >1000 nM

Q: What about the TC50 (CEM-SS cells [5]; drug addition 24 h post-infection) of the same molecule?
A: >1000 nM

Q: And the TC50 (CEM-SS cells [5]; drug addition 48 h post-infection)?
A: >1000 nM

Q: What about the TC50 (CEM-SS cells [5]; drug addition 72 h post-infection) of the same molecule?
A: >1000 nM

Q: For `CCC[C@@]1(CCc2ccccc2)CC(O)=C([C@H](CC)c2cccc(NS(=O)(=O)c3ccc(C(F)(F)F)cn3)c2)C(=O)O1` [Tipranavir, reference compound], which IC50 [6] is on record?
A: 7.2 nM and 1.96 nM

Q: What about the fraction unbound at 2 h, 5 μM [7] of the same molecule?
A: 0.00866 ± 0.0013

Q: And the “CEM-SS TC50 ± SD” value (CEM-SS cells [8])?
A: 30600 nM and 40700 nM

Q: And the hepatocyte CLint at 3 μM [9]?
A: 0.111 ± 0.643 µL/min/1e6 cells

Q: And the fraction unbound at 3 μM [10]?
A: 0.302 ± 0.0853

Q: With `COCCOCCOCCOC(=O)N[C@@H](C(=O)NC(Cc1ccccc1)[C@@H](O)CN(Cc1ccc(-c2ccccn2)cc1)NC(=O)[C@H](NC(=O)OCCOCCOCCOC)C(C)(C)C)C(C)(C)C` (stereo partly drawn) [di-mPEG3-Atazanavir] as the molecule, how does the “3A4 t1/2 ± SEM” value (CYP3A4 [11]) read?
A: 1.6 ± 0.457 h

Q: What about the “Plasma Protein Binding Fu ± SD” value (human plasma proteins) of the same molecule?
A: 0.376 ± 0.00639

Q: And the “PBMC TC50 ± SD” value (PBMCs)?
A: 146000 nM

Q: And the IC50 (CYP3A4 [12]; read-out: CYP3A4 IC50 Midazolam, probe substrate midazolam)?
A: > 50000 nM

Q: What about the IC50 (CYP3A4 [12]; read-out: CYP3A4 IC50 Testosterone, probe substrate testosterone) of the same molecule?
A: 23400 nM

Q: What about the EC50 (HIV-1 HT/92/599) of the same molecule?
A: 390 ± 60 nM

Q: What about the “CLint ± SEM” value [13] of the same molecule?
A: 190 ± 18.3 μL/min/mg protein

Q: What about the t1/2 [13] of the same molecule?
A: 7.31 min

Q: And the “CLint ± SEM” value (human hepatocytes)?
A: 3.46 ± 0.896 μL/min/10^6 cells

Q: What about the “Microsomal Protein Binding Fu ± SD” value [14] of the same molecule?
A: highly unbound

Q: What about the “2D6 t1/2 ± SEM” value (CYP2D6) of the same molecule?
A: 2.18 ± 0.808 h
